Measurements: ChEMBL document CHEMBL3137667, “[Drug-induced liver injury; fourteenth updated edition of the bibliographic database of liver injuries and related drugs]” (Gastroenterol Clin Biol, 2004)

Key:
[1] = Highest frequency of moderate liver toxicity observed during clinical trials, expressed as a percentage. [column '% BIOL' in source]; settings: human
[2] = Highest frequency of acute liver toxicity observed during clinical trials, expressed as a percentage. [column '% AIGUE' in source]; settings: human
[3] = Presence of at least one case with successful reintroduction. [column 'REINT' in source]; settings: human
[4] = Times to onset, minimal and maximal, observed in the indexed observations. [column 'DELAI' in source]; settings: human
[5] = human, serum
[6] = human, serum; remark: listed apart in the source
[7] = human
[8] = human; remark: listed apart in the source
[9] = human; remark: listed apart in the source
[10] = human, serum, 4383 h
[11] = human; remark: listed apart in the source
[12] = human; remark: listed apart in the source
[13] = human; remark: listed apart in the source
[14] = human; remark: listed apart in the source
[15] = human; remark: listed apart in the source
[16] = human; remark: listed apart in the source
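Throughout, for Hepatotoxicity (association with vascular disease): count of indexed literature references reporting vascular liver injury in humans, e.g. peliosis hepatitis, hepatic veno-occlusive disease or Budd-Chiari syndrome.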
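Throughout, for Hepatotoxicity (benign tumour): value is a count of indexed literature references citing a benign tumour confirmed by histopathology.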
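Throughout, for Hepatotoxicity (choleostasis): human cholestatic liver injury, shown by histopathology or by peak ALT or AST elevation over alkaline phosphatase ratio below 2, value counts indexed literature reports.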
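Throughout, for Hepatotoxicity (chronic liver disease): chronic liver injury confirmed by histopathology or persistently raised serum aminotransferase activity beyond 6 months, value given as the count of indexed literature references.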
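Throughout, for Hepatotoxicity (cirrhosis): value is a count of indexed literature references reporting cirrhosis confirmed by histopathology.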
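Throughout, for Hepatotoxicity (cytolytic): human cytolytic liver injury, shown by histopathology or by a ratio above 5 of peak ALT or AST elevation to alkaline phosphatase elevation, value counts indexed references.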
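Throughout, for Hepatotoxicity (granulomatous hepatitis): value is a count of indexed literature references reporting granulomatous liver disease confirmed by histopathology.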
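Throughout, for Hepatotoxicity (malignant tumour): malignant tumour confirmed by histopathology, value gives the count of indexed literature references reporting it.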
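Throughout, for Hepatotoxicity (severe hepatitis): human clinical data: severe hepatitis, meaning potentially life-threatening liver failure or clinically observed cases, the value counts how many indexed literature references report it.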
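Throughout, for Hepatotoxicity (steatosis): steatosis confirmed by histopathology, value is the count of indexed references.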

Compound | Hepatotoxicity (moderate) [1] [%] | Hepatotoxicity (acute) [2] [%] | Hepatotoxicity (successful reintroduction) [3] | Hepatotoxicity (time to onset) [4] | Hepatotoxicity (moderate) [5] | Hepatotoxicity (acute) [6] | Hepatotoxicity (cytolytic) [7] | Hepatotoxicity (choleostasis) [8] | Hepatotoxicity (severe hepatitis) [9] | Hepatotoxicity (chronic liver disease) [10] | Hepatotoxicity (cirrhosis) [11] | Hepatotoxicity (granulomatous hepatitis) [12] | Hepatotoxicity (association with vascular disease) [13] | Hepatotoxicity (steatosis) [14] | Hepatotoxicity (malignant tumour) [15] | Hepatotoxicity (benign tumour) [16] | also measured
O=C1c2ccccc2C(=O)C1c1ccc(F)cc1 [FLUINDIONE] | 0 | 0 | yes | 1 week - 3 months | 0 | 7 | 5 | 1 | 0 | 0 | 0 | 0 | 0 | 0 | 0 | 0 | –
CC(C(=O)O)c1ccc(-c2ccccc2)c(F)c1 (centres undefined) [FLURBIPROFEN] | 8.1 | 0 | yes | 1 day - 2 months | 4 | 3 | 2 | 1 | 0 | 0 | 0 | 0 | 0 | 0 | 0 | 0 | –
C[C@@H]1O[C@@H]1P(=O)(O)O [FOSFOMYCIN] | 23.8 | 0 | yes | 3 days - 4 days | 8 | 1 | 1 | 0 | 0 | 0 | 0 | 0 | 0 | 0 | 0 | 0 | –
NS(=O)(=O)c1cc2c(cc1Cl)NCNS2(=O)=O [HYDROCHLOROTHIAZIDE] | 2.4 | 0 | yes | 17 days - 14 months | 2 | 4 | 3 | 1 | 1 | 0 | 0 | 0 | 0 | 0 | 0 | 0 | –
Nc1cc(-c2ccncc2)c[nH]c1=O [INAMRINONE] | 33 | 0 | yes | 1 week - 3 weeks | 9 | 6 | 2 | 2 | 0 | 0 | 0 | 0 | 0 | 0 | 0 | 0 | –
CN(C)CCCn1c2c(c3ccccc31)CCCCCC2 [IPRINDOLE] | – | – | yes | 2 weeks - 1 month | 1 | 6 | – | – | – | 0 | 0 | – | 0 | 0 | 0 | 0 | Hepatotoxicity (moderate) ([1]; Liver): 0%; Hepatotoxicity (acute) ([2]; Liver): 0%; Hepatotoxicity (cytolytic) ([7]; Liver): 1; Hepatotoxicity (choleostasis) ([8]; Liver): 6; Hepatotoxicity (severe hepatitis) ([9]; Liver): 0; Hepatotoxicity (granulomatous hepatitis) ([12]; Liver): 0
COc1c2occc2c(OC)c2c(=O)cc(C)oc12 [KHELLIN] | 0 | 0 | yes | 5 weeks | 1 | 1 | 1 | 0 | 0 | 0 | 0 | 0 | 0 | 0 | 0 | 0 | –
Cc1c(OCC(F)(F)F)ccnc1C[S+]([O-])c1nc2ccccc2[nH]1 (centres undefined) [LANSOPRAZOLE] | 10.5 | 0 | yes | 13 days - 5 weeks | 7 | 4 | 3 | 1 | 1 | 0 | 0 | 0 | 0 | 0 | 0 | 0 | –
[Li] [LITHIUM] | 0 | 0 | yes | 2 days - 2 months | 4 | 0 | 0 | 0 | 0 | 1 | 0 | 0 | 0 | 0 | 0 | 0 | –
CN(CCCN1c2ccccc2CCc2ccccc21)CC(=O)c1ccc(Cl)cc1 [LOFEPRAMINE] | 46.5 | 2.3 | yes | 1 week - 12 weeks | 7 | 3 | 2 | 3 | 1 | 0 | 0 | 0 | 0 | 0 | 0 | 0 | –
N[C@@H](C(=O)N[C@@H]1C(=O)N2C(C(=O)O)=C(Cl)CC[C@H]12)c1ccccc1 [LORACARBEF ANHYDROUS] | 15 | 0 | yes | 1 week - 6 weeks | 19 | 1 | 1 | 1 | 0 | 0 | 0 | 0 | 0 | 0 | 0 | 0 | –
CCCCc1nc(Cl)c(CO)n1Cc1ccc(-c2ccccc2-c2nn[nH]n2)cc1 [LOSARTAN] | 20 | 0 | yes | 2 weeks - 5 months | 11 | 5 | 4 | 0 | 1 | 1 | 0 | 0 | 0 | 0 | 0 | 0 | –
CCC1(c2ccccc2)C(=O)NC(=O)N(C)C1=O (centres undefined) [MEPHOBARBITAL] | 0 | 0 | yes | 3 months | 0 | 1 | 1 | 0 | 0 | 0 | 0 | 0 | 0 | 0 | 0 | 0 | –
CN(C)C(=N)N=C(N)N [METFORMIN] | – | – | yes | 1 week - 17 months | 1 | 10 | – | – | – | 0 | 0 | – | 0 | 0 | 0 | 0 | Hepatotoxicity (moderate) ([1]; Liver): 0%; Hepatotoxicity (acute) ([2]; Liver): 0%; Hepatotoxicity (cytolytic) ([7]; Liver): 3; Hepatotoxicity (choleostasis) ([8]; Liver): 6; Hepatotoxicity (severe hepatitis) ([9]; Liver): 0; Hepatotoxicity (granulomatous hepatitis) ([12]; Liver): 0
